# Read-outs that look alike come from different tables or passages of the source.
# How the values were obtained:
# [1] = tested on: clinical antibiotic resistant isolates of MRSA; assay: Checkerboard resistance breaking by SP-BIM 13; assay type: cell-based, Staphylococcus aureus; conditions: for MIC of antibiotic in combination: with SP-BIM 13 at rescue concentration; for FIC compound: SP-BIM 13 with the labelled antibiotic; for Interpretation / Σ FIC: antibiotic + SP-BIM 13; for MIC of antibiotic only: antibiotic alone; for FIC antibiotic: combination with SP-BIM 13
# clinical strains of MRSA = assay: Kirby Bauer disc diffusion susceptibility profile; assay type: cell-based, Staphylococcus aureus; conditions: for Zone of clearance: 35° C., 24 hours, average n=3; for Interpretive standard (resistant/susceptible): zones vs EUCAST breakpoints (Table 30)
# Enterococcus faecalis = assay: Adjuvant broth microdilution (antibiotic MIC with SP-BIM at 50 μg/mL); assay type: cell-based; conditions: antibiotic alone
# Streptococcus pneumoniae = assay: as above; assay type: cell-based; conditions: Streptococcus pneumoniae; Streptococcus pneumonia; antibiotic alone; Table 5; read-out: MIC of antibiotic, No compound
# Klebsiella pneumoniae = assay: Checkerboard synergy (FICI) of antibiotics with SP-BIM; assay type: cell-based; conditions: for MIC: 24 h, antibiotic alone, read-out: MIC antibiotic only
smiles,measurement,setting,value
"CC1(C)S[C@@H]2[C@H](NC(=O)[C@H](N)c3ccccc3)C(=O)N2[C@H]1C(=O)O [Ampicillin, ampicillin]",MIC of antibiotic in combination,[1]; MRSA strain 1594,4 µg/mL
same,FIC compound,[1]; MRSA strain 1621,0.128
same,Interpretation,[1]; MRSA strain 1621,Synergy (Synergy: FICI≤0.5)
same,Σ FIC,[1]; MRSA strain 1621,<0.13
same,MIC of antibiotic only,[1]; MRSA strain 1621,250 µg/mL
same,FIC antibiotic,[1]; MRSA strain 1621,0.002
same,MIC of antibiotic in combination,[1]; MRSA strain 1621,0.5 µg/mL
same,FIC compound,[1]; MRSA strain 5455,0.252
same,Interpretation,[1]; MRSA strain 5455,Synergy (Synergy: FICI≤0.5)
same,Σ FIC,[1]; MRSA strain 5455,<0.26
same,MIC of antibiotic only,[1]; MRSA strain 5455,250 µg/mL
same,FIC antibiotic,[1]; MRSA strain 5455,0.004
same,MIC of antibiotic in combination,[1]; MRSA strain 5455,1 µg/mL
same,FIC compound,[1]; MRSA strain 5872,0.128
same,Interpretation,[1]; MRSA strain 5872,Synergy (Synergy: FICI≤0.5)
same,Σ FIC,[1]; MRSA strain 5872,<0.13
same,MIC of antibiotic only,[1]; MRSA strain 5872,250 µg/mL
same,FIC antibiotic,[1]; MRSA strain 5872,0.002
same,MIC of antibiotic in combination,[1]; MRSA strain 5872,0.5 µg/mL
same,FIC compound,[1]; MRSA strain 7153,0.252
same,Interpretation,[1]; MRSA strain 7153,Synergy (Synergy: FICI≤0.5)
same,Σ FIC,[1]; MRSA strain 7153,<0.25
same,MIC of antibiotic only,[1]; MRSA strain 7153,250 µg/mL
same,FIC antibiotic,[1]; MRSA strain 7153,0.002
same,MIC of antibiotic in combination,[1]; MRSA strain 7153,0.5 µg/mL
same,FIC compound,[1]; MRSA strain 7172,0.128
same,Interpretation,[1]; MRSA strain 7172,Synergy (Synergy: FICI≤0.5)
same,Σ FIC,[1]; MRSA strain 7172,<0.14
same,MIC of antibiotic only,[1]; MRSA strain 7172,250 µg/mL
same,FIC antibiotic,[1]; MRSA strain 7172,0.008
same,MIC of antibiotic in combination,[1]; MRSA strain 7172,2 µg/mL
same,FIC compound,[1]; MRSA strain 7698,0.128
same,Interpretation,[1]; MRSA strain 7698,Synergy (Synergy: FICI≤0.5)
same,Σ FIC,[1]; MRSA strain 7698,<0.14
same,MIC of antibiotic only,[1]; MRSA strain 7698,250 µg/mL
same,FIC antibiotic,[1]; MRSA strain 7698,0.008
same,MIC of antibiotic in combination,[1]; MRSA strain 7698,2 µg/mL
same,FIC compound,[1]; MRSA strain 10132,0.064
same,Interpretation,[1]; MRSA strain 10132,Synergy (Synergy: FICI≤0.5)
same,Σ FIC,[1]; MRSA strain 10132,<0.07
same,MIC of antibiotic only,[1]; MRSA strain 10132,250 µg/mL
same,FIC antibiotic,[1]; MRSA strain 10132,0.002
same,MIC of antibiotic in combination,[1]; MRSA strain 10132,0.5 µg/mL
same,MIC of antibiotic without SP-BIM 13,[1]; clinical MRSA strains,≥ 250 µg/mL
same,Zone of clearance,clinical strains of MRSA; MRSA strain 1594,13.0 mm
same,Interpretive standard (resistant/susceptible),clinical strains of MRSA; MRSA strain 1594,R
same,Interpretive standard (resistant/susceptible),clinical strains of MRSA; MRSA strain 1621,R
same,Zone of clearance,clinical strains of MRSA; MRSA strain 5455,14.5 mm
same,Interpretive standard (resistant/susceptible),clinical strains of MRSA; MRSA strain 5455,R
same,Zone of clearance,clinical strains of MRSA; MRSA strain 5872,9.0 mm
same,Interpretive standard (resistant/susceptible),clinical strains of MRSA; MRSA strain 5872,R
same,Zone of clearance,clinical strains of MRSA; MRSA strain 7153,13.5 mm
same,Interpretive standard (resistant/susceptible),clinical strains of MRSA; MRSA strain 7153,R
same,Zone of clearance,clinical strains of MRSA; MRSA strain 7172,14.5 mm
same,Interpretive standard (resistant/susceptible),clinical strains of MRSA; MRSA strain 7172,R
same,Zone of clearance,clinical strains of MRSA; MRSA strain 7698,10.5 mm
same,Interpretive standard (resistant/susceptible),clinical strains of MRSA; MRSA strain 7698,R
same,Zone of clearance,clinical strains of MRSA; MRSA strain 10132,14.0 mm
same,Interpretive standard (resistant/susceptible),clinical strains of MRSA; MRSA strain 10132,R
same,"MIC of antibiotic, No Compound",Enterococcus faecalis,2 µg/mL
same,MIC,Streptococcus pneumoniae,0.5 µg/mL
same,MIC,Klebsiella pneumoniae; SP-BIM 9 checkerboard,250 µg/mL
same,MIC,Klebsiella pneumoniae; SP-BIM 13 checkerboard,250 µg/mL
same,FIC of SP-BIM 9,Klebsiella pneumoniae; SP-BIM 9 in combination with the labelled antibiotic,1
same,FIC of SP-BIM 13,Klebsiella pneumoniae; SP-BIM 13 in combination with the labelled antibiotic,0.3
same,Interpretation,Klebsiella pneumoniae; antibiotic + SP-BIM 9,Synergy (Synergy: FICI≤0.5)
same,Σ FIC,Klebsiella pneumoniae; antibiotic + SP-BIM 9,<1.0
same,Interpretation,Klebsiella pneumoniae; antibiotic + SP-BIM 13,Indifferent (Indifferent: FICI>1.0-4.0)
same,Σ FIC,Klebsiella pneumoniae; antibiotic + SP-BIM 13,<1.3
same,"MIC in combination, Antibiotic",Klebsiella pneumoniae; antibiotic in combination with SP-BIM 9,2 µg/mL
same,"MIC in combination, Antibiotic",Klebsiella pneumoniae; antibiotic in combination with SP-BIM 13,250 µg/mL
same,FIC of antibiotic,Klebsiella pneumoniae; in combination with SP-BIM 9,0.008
same,FIC of antibiotic,Klebsiella pneumoniae; in combination with SP-BIM 13,1.0

# Source: US12285407B2, “Bis-indolylmethane derivatives and uses thereof” (The University of The West Indies, priority 2018, dated 2025)
